Measured values from patent EP1580187A1, “Apoptogenic and antiproliferative analogs of ceramide” (Deigner, Hans-Peter, priority 2004, dated 2005).
Like-named read-outs stand apart in the source and are kept apart here.

Legend:
Format in all cases: cell-based
[1] = tested on: human adenocarcinoma cell line HT 29; assay: Induction of apoptosis (YOPRO-1 / Hoechst 33342 staining, count of apoptotic cells); settings: HT 29 cells, mean (MW), spontaneous apoptosis rate 2.48 % ± 0.58, unit only printed
Description: (§1) Human colon carcinoma cells HT-29 were purchased from ATCC and cultivated under standard conditions (37°C, 5% CO2, McCoy 5A medium, 10% fetal calf serum, penicillin, streptomycin). For experimentation, cells were seeded in cell culture dishes at appropriate density, stimulated and analysed as described in the following section.
Apoptotic macrophages and colon carcinoma cells were identified by microscopic observation of typical morphological changes (blebbing, generation of apoptotic bodies) and quantitated by YOPRO-1 staining and Hoechst 33342 dye. The percentage of apoptotic cells was counted using a microscope fitted with mercury light source and fluorescence assembly in combination with a computer-assisted morphometry system. Apoptosis was confirmed by PARP cleavage detected by Western Blotting and single cell electrophoresis (COMET-assay).
(§2) Induction of apoptosis was determined in the human adenocarcinoma cell line HT 29 as described in Example 1; spontaneous apoptosis rate was 2.48 % ± 0.58. The activation of acidic sphingomyelinase (aSMase) was analyzed in the same cell line as described in Example 1, basal activity amounts to 278,4 pmolµg^-1min^-1 ± 41,3.

[2] = target: T1, acidic sphingomyelinase (aSMase) (Homo sapiens, UniProt P17405); assay: SMase activity determination (activation of aSMase in cells, NBD-sphingomyelin hydrolysis); settings: HT 29 cells, mean (MW), basal activity 278,4 ± 41,3, unit only printed
T1 construct: endogenous in cells; host or cells: HT 29 (human adenocarcinoma cell line)
T1 sequence (P17405 47-631): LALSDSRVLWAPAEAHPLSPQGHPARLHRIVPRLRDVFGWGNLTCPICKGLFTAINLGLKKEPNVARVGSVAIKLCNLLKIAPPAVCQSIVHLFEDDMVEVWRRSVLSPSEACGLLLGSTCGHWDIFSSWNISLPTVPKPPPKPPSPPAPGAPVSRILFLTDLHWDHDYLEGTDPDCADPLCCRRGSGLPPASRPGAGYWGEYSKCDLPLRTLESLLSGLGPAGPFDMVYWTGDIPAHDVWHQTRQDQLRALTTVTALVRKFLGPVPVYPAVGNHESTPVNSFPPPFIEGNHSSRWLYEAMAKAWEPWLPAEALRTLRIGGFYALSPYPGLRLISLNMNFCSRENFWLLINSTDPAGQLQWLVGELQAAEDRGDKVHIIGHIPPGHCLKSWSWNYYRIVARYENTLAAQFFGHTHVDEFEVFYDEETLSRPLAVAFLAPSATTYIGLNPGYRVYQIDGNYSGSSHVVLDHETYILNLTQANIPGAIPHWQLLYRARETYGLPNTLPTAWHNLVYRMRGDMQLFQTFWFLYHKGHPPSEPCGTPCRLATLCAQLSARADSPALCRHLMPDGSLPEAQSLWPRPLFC
Description: Activities of aSMase and nSMase were determined by hydrolysis of a fluorogenic C12-analogue substrate [(7-Nitro-2-1,3-benzoxadiazol-4-yl)amino-dodecyl-D-erythro-sphingosine, NBD-sphingomyelin, Molecular Probes, subsequent separation of the labelled NBD ceramide analog by thin layer chromatography and data analysis at conditions as described in detail previously.
as §2

[3] = tested on: HT-29 colon carcinoma cells; assay: Proliferation (DNA synthesis, colorimetric BrdU-ELISA); settings: Homo sapiens
Description: as §1
Quantitative determination of DNA synthesis in replicating cells was analyzed using commercial available test kits (colorimetric BrdU-ELISA, Roche-Diagnostics) according to the manufacturer's instructions. For these experiments, HT-29 colon carcinoma cells were seeded in 96-well plates at 40% confluence, cultivated overnight (1% FCS), incubated for 16 h with the test compounds (concentration range: three orders of magnitude), pulsed labelled with BrdU and fixed. The amount of incorporated BrdU was analysed using specific antibodies (Roche Diagnostics, Mannheim, Germany) and subsequent colorimetric reaction. The rate of DNA-synthesis in untreated control cells with standard medium was determined and compared with that in a medium contained the test compounds.
Semiconfluent HT-29 cells were incubated with compound 4 at concentration as indicated over night and DNA synthesis was analyzed on the basis of BrdU-incorporation and subsequent immunological quantification. Compound 4 inhibited cellular proliferative activity with an apparent IC50 of among 6,7 µM. […] Due to previous calculation using dependent variables over several orders of magnitudes, no standard deviation is given in Table 1 presenting the averaged half maximal concentrations for inhibition of proliferative activity.

[4] = HT-29 cells, BrdU incorporation, averaged half maximal concentrations, no standard deviation, read-out: Anti-Prolif. IC50
[5] = semiconfluent HT-29 cells, incubation over night, BrdU-incorporation, read-out: apparent IC50 / half maximal antiproliferative activity

| Structure (SMILES) | Induction of apoptosis 5 μM MW [1] | Induction of apoptosis 10 μM MW [1] | Induction of apoptosis 30 μM MW [1] | aSMase-activity 5 μM MW [2] | aSMase-activity 20 μM MW [2] | IC50 [3, 4] [µM] | IC50 [3, 5] [µM] |
| --- | --- | --- | --- | --- | --- | --- | --- |
| CCCCCCCCCCCCC/C=C/[C@@H](O)[C@H](CO)NC(=O)CCCCC [Ceramide C6, reference compound] | 2,6% | 6,4% | 12,4% | 427,3 pmolµg^-1min^-1 | 743,4 pmolµg^-1min^-1 | 4 | ~4 |
| CCCCCC(=O)N[C@@H](CO)[C@@H](O)c1ccc([N+](=O)[O-])cc1 [Compound 1, Hexanoic acid [(1S,2S)-2-hydroxy-1-hydroxymethyl-2-(4-nitrophenyl)-ethyl]-amide] | 1,3% | 8,4% | 8,9% | 541,3 pmolµg^-1min^-1 | 631,0 pmolµg^-1min^-1 | 2.4 |  |
| CCCCCC(=O)N[C@@H](CO)[C@H](O)C1=CCCC1 [Compound 2, Hexanoic acid ((1S,2R)-2-cyclopent-1-enyl-2-hydroxy-1-hydroxymethyl-ethyl)-amide] | 15,7% | 4,9% | 5,9% | 347,0 pmolµg^-1min^-1 | 1185,4 pmolµg^-1min^-1 | 4.6 |  |
| CCCCCC(=O)N[C@@H](CO)[C@H](O)/C1=C/CCCCCC1 [Compound 3, Hexanoic acid [(1S,2R)-2-((E)-cyclooct-1-enyl)-2-hydroxy-1-hydroxymethyl-ethyl]-amide] | 2,9% | 7,4% | 5,7% | 403,8 pmolµg^-1min^-1 | 1108,4 pmolµg^-1min^-1 | 3.1 |  |
| CC(C)(C)OC(=O)N1[C@H]([C@H](O)C2=CCCC2)COC1(C)C [Compound 4, (S)-4-((R)-Cyclopent-1-enyl-hydroxy-methyl)-2,2-dimethyloxazolidine-3-carboxylic acid tert-butyl ester] | 3,95% | 8,5% | 10,2% | 574,2 pmolµg^-1min^-1 | 812,7 pmolµg^-1min^-1 | 6.7 | ~6.7 |
| CC(C)(C)OC(=O)N1[C@H]([C@H](O)/C2=C/CCCCCC2)COC1(C)C [Compound 5, (S)-4-[(R)-((E)-Cyclooct-1-enyl)-hydroxy-methyl]-2,2-dimethyloxazolidine-3-carboxylic acid tert-butyl ester] | 6,4% | 7,7% | 9,2% | 447,3 pmolµg^-1min^-1 | 967,3 pmolµg^-1min^-1 | 3.2 |  |
